Laboratory results published in ChEMBL document CHEMBL5634134, “Design, synthesis, and biological evaluation of novel 4,4'-bipyridine derivatives acting as CDK9-Cyclin T1 protein-protein interaction inhibitors against triple-negative breast cancer” (Eur J Med Chem, 2023).
Active and inactive are the calls of the source. The rule behind the calls is not given here.

Experiments:
MDA-MB-231 [1] = test: Induction of apoptosis in human MDA-MB-231 cells assessed as necrotic cells at 111 nM incubated for 72 hrs by Annexin V-FITC/PI staining based flow cytometry analysis (reference value: 0.49 %); format: functional
[2] = target: Cyclin-dependent kinase 12 (Homo sapiens) (UniProt Q9NYV4); test: Binding affinity to CDK12 in human MDA-MB-231 cells asssesed as thermal stabilization at 1 uM incubated for 8 hrs under 45 to 65 degreeC by Western blot analysis; format: cell-based
Cyclin-dependent kinase 12 (Homo sapiens), sequence (Q9NYV4 whole entry, looked up): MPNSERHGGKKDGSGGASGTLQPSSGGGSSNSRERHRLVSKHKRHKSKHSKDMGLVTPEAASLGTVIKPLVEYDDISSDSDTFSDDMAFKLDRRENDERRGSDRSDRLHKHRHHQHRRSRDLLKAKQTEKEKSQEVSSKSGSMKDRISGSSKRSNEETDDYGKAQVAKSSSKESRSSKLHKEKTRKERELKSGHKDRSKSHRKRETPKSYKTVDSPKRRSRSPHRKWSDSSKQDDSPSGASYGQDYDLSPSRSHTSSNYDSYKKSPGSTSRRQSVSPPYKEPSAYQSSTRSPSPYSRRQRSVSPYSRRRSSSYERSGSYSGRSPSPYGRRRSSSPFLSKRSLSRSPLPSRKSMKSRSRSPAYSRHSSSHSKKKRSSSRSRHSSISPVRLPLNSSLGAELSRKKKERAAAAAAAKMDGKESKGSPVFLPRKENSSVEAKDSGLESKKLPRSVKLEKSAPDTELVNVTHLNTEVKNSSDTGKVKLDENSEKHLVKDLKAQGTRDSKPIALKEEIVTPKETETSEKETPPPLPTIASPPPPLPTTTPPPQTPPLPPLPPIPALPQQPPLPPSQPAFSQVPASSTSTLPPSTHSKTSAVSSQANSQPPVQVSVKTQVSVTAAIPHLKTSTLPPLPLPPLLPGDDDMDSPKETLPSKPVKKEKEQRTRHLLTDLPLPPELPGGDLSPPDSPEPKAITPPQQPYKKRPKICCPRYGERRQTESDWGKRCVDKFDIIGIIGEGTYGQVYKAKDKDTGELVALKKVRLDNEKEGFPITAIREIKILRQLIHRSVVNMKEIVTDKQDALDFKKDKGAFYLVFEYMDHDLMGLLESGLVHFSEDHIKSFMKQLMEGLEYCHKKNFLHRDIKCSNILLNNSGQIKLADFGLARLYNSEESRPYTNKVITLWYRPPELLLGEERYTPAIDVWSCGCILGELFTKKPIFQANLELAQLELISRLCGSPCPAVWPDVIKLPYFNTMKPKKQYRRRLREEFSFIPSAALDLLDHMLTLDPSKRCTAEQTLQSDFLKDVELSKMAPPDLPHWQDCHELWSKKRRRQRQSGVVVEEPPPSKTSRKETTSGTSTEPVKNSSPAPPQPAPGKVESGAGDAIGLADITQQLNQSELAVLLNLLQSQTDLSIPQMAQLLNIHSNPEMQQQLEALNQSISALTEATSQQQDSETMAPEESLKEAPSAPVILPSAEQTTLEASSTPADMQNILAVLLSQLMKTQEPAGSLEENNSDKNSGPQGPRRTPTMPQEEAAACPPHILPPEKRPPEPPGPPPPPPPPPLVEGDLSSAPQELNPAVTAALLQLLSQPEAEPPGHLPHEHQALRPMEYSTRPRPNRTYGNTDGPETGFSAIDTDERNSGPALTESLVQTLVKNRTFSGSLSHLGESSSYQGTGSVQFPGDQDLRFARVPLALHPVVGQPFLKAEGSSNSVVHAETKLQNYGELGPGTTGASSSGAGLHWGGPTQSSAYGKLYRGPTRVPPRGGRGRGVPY

[3] = target: Cyclin-dependent kinase 7/ cyclin H (Homo sapiens) (UniProt P51946+P50613); test: Inhibition of Flag-tagged CDK7(unknown origin)/Cyclin H (unknown origin) transfected in HEK293T cells at 1 to 3 uM incubated for 8 hrs by co-immunoprecipitation assay; format: cell-based; settings: dose 1-3 µM
MDA-MB-231 [4] = test: Induction of apoptosis in human MDA-MB-231 cells assessed as late apoptotic cells at 111 nM incubated for 72 hrs by Annexin V-FITC/PI staining based flow cytometry analysis (reference value: 4.04 %); format: functional
[5] = Tmax in Sprague-Dawley rat at 50 mg/kg, ip measured afer 24 hrs by LC-MS/MS analysis; format: ADME, organism-based; settings: in vivo
MDA-MB-231 [6] = test: Inhibition of colony formation in human MDA-MB-231 cells assessed as reduction in colony size incubated for 10 days by crystal violet staining based analysis; format: functional, cell-based; settings: dose 12-1000 nM, time 10.0 day
MDA-MB-231 [7] = test: Antimetastasis activity in human MDA-MB-231 cells assessed as wound closure at 0.1 uM and measured upto 48 hrs by inverted microscope analysis (reference value: 46 %); format: functional
[8] = Cytotoxicity against human MCF-10A cells assessed as inhibition of cell growth incubated for 72 hrs by MTT assay; format: toxicity, cell-based
[9] = Toxicity in mouse assessed as animal death at 62.5 to 500 mg/kg, ip administered for 16 days; format: organism-based; settings: in vivo, 384 h, dose 62.5-500 mg/kg, time 16 day
[10] = Toxicity in mouse assessed as increase in body weight at 62.5 to 500 mg/kg, ip administered for 16 days; format: organism-based; settings: in vivo, 384 h, dose 62.5-500 mg/kg, time 16 day
[11] = Toxicity in mouse assessed as median lethal dose administered intraperitoneally for 16 days; settings: in vivo, route ip, time 16 day
[12] = Toxicity in mouse assessed as lethal dose administered intraperitoneally for 16 days by Karber's method; settings: in vivo, route ip, time 16 day
MDA-MB-231 [13] = test: Inhibition of cell invasion in human MDA-MB-231 cells incubated for 24 hrs by crystal violet staining based transwell matrix penetration assay; format: functional; settings: dose 37-1000 nM
[14] = MRT (0 to infinity) in Sprague-Dawley rat at 50 mg/kg, ip measured afer 24 hrs by LC-MS/MS analysis; format: ADME, organism-based; settings: in vivo
[15] = Cytotoxicity against human L02 cells assessed as inhibition of cell growth incubated for 72 hrs by MTT assay; format: toxicity, cell-based
[16] = Cytotoxicity against human MRC5 cells assessed as inhibition of cell growth incubated for 72 hrs by MTT assay; format: toxicity, cell-based
4T1 [17] = test: In vivo inhibition of RNA Pol II phosphorylation at ser2 in athymic BALB/c mouse implanted with mouse 4T1 cells at 12.5 to 25 mg/kg, ip administered once daily for 14 days by Western blot analysis; format: functional, organism-based; settings: dose 12.5-25 mg/kg, time 14.0 day
MDA-MB-231 [18] = test: Induction of apoptosis in human MDA-MB-231 cells assessed as necrotic cells at 1000 nM incubated for 72 hrs by Annexin V-FITC/PI staining based flow cytometry analysis (reference value: 0.49 %); format: functional
MDA-MB-231 [19] = test: Induction of apoptosis in human MDA-MB-231 cells assessed as viable cells at 333 nM incubated for 72 hrs by Annexin V-FITC/PI staining based flow cytometry analysis (reference value: 94.81 %); format: functional; settings: read-out: Activity
MDA-MB-231 [20] = test: Induction of apoptosis in human MDA-MB-231 cells assessed as early apoptotic cells at 37 nM incubated for 72 hrs by Annexin V-FITC/PI staining based flow cytometry analysis (reference value: 0.66 %); format: functional
MDA-MB-231 [21] = test: Inhibition of colony formation in human MDA-MB-231 cells assessed as reduction in colony number at >=111 nM incubated for 10 days by crystal violet staining based analysis relative to control; format: functional; settings: time 10 day
4T1 [22] = test: Antitumor activity against mouse 4T1 cells implanted in athymic BALB/c mouse assessed as tumor inhibition rate at 25 mg/kg, ip administered for 14 days relative to control; format: functional; settings: 4T1, 336 h, time 14 day
[23] = MRT (0 to t) in Sprague-Dawley rat at 50 mg/kg, ip measured afer 24 hrs by LC-MS/MS analysis; format: ADME, organism-based; settings: in vivo
MDA-MB-231 [24] = test: Induction of apoptosis in human MDA-MB-231 cells assessed as early apoptotic cells at 1000 nM incubated for 72 hrs by Annexin V-FITC/PI staining based flow cytometry analysis (reference value: 0.66 %); format: functional
MDA-MB-231 [25] = test: Inhibition of RNA Polymerase II CTD phosphorylation at ser2 residue in human MDA-MB-231 cells at 1 uM incubated for 24 hrs by Western blotting analysis; format: cell-based
MDA-MB-231 [26] = test: Antiproliferative activity against human MDA-MB-231 cells assessed as inhibition of 3D tumor growth at 100 nM incubated for 10 days in presence of olaparib by confocal laser scanning microscopic analysis; format: functional, cell-based; settings: time 10.0 day
4T1 [27] = test: Antitumor activity against mouse 4T1 cells implanted in athymic BALB/c mouse assessed as tumor inhibition rate at 12.5 mg/kg, ip administered for 14 days relative to control; format: functional; settings: 4T1, 336 h, time 14 day
MDA-MB-231 [28] = test: Induction of apoptosis in human MDA-MB-231 cells assessed as early apoptotic cells at 111 nM incubated for 72 hrs by Annexin V-FITC/PI staining based flow cytometry analysis (reference value: 0.66 %); format: functional
4T1 [29] = test: Antitumor activity against mouse 4T1 cells implanted in athymic BALB/c mouse assessed as reduction in tumor weight at 12.5 to 25 mg/kg, ip administered for 14 days; format: functional, organism-based; settings: dose 12.5-25 mg/kg, time 14.0 day
MDA-MB-231 [30] = test: Induction of apoptosis in human MDA-MB-231 cells assessed as viable cells at 1000 nM incubated for 72 hrs by Annexin V-FITC/PI staining based flow cytometry analysis (reference value: 94.81 %); format: functional; settings: read-out: Activity
[31] = AUC (0 to t) in Sprague-Dawley rat at 50 mg/kg, ip measured afer 24 hrs by LC-MS/MS analysis; format: ADME, organism-based; settings: in vivo
[32] = Toxicity in athymic BALB/c mouse implanted with mouse 4T1 cells assessed as reduction in tolerance at 12.5 mg/kg, ip administered for 14 days; format: organism-based; settings: in vivo, 336 h, time 14 day
MDA-MB-231 [33] = test: Effect on RNA polymerase II phosphorylation at Ser2 residue in human MDA-MB-231 cells transfected with shCDK9 at 300 nM by Western blot analysis; format: functional, cell-based
MDA-MB-231 [34] = test: Induction of apoptosis in human MDA-MB-231 cells assessed as increase in cleaved PARP-1 protein incubated for 24 hrs by Western blotting analysis; format: functional, cell-based; settings: dose 37-1000 nM
MDA-MB-231 [35] = test: Effect on C-Myc protein expression in human MDA-MB-231 cells transfected with shCDK9 at 300 nM by Western blot analysis; format: functional, cell-based

SMILES: COc1ccc(C(=O)Nc2cc(-c3ccnc(N4CCC(O)CC4)c3)ccn2)cc1
- Activity (MDA-MB-231 [1]): 0.17%
- Activity [2]: inactive
- inhibition [3]: inactive
- Activity (MDA-MB-231 [4]): 34.93%
- Tmax [5]: 0.5 h
- inhibition (MDA-MB-231 [6]): Dose-Dependent Effect
- Activity (MDA-MB-231 [7]): 18%
- IC50 at 72 h [8]: 498 nM
- Activity [9]: Non-Toxic
- Activity [10]: Non-Toxic
- LD50 at 384 h [11]: 750 mg/kg
- LD50 at 384 h [12]: 537 mg/kg
- inhibition (MDA-MB-231 [13]): Dose-Dependent Effect
- MRT inf [14]: 1.26 h
- IC50 at 72 h [15]: 756 nM
- IC50 at 72 h [16]: 335 nM
- inhibition (4T1 [17]): Active
- Activity (MDA-MB-231 [18]): 0%
- viability at 0.333 µM (MDA-MB-231 [19]): 30.8%
- Activity (MDA-MB-231 [20]): 3.14%
- inhibition (INH) (MDA-MB-231 [21]): ~100%
- inhibition in vivo at 25 mg/kg (4T1 [22]): 86.1%
- MRT last at 24 h [23]: 1.26 h
- Activity (MDA-MB-231 [24]): 14.2%
- inhibition (MDA-MB-231 [25]): Active
- Activity (MDA-MB-231 [26]): Active
- inhibition in vivo at 12.5 mg/kg (4T1 [27]): 63.1%
- Activity (MDA-MB-231 [28]): 21.3%
- Activity (4T1 [29]): Active
- viability at 1 µM (MDA-MB-231 [30]): 14.2%
- AUC(0-t) at 24 h [31]: 17000 ng·h/mL
- Activity [32]: Non-Toxic
- Activity (MDA-MB-231 [33]): inactive
- Activity (MDA-MB-231 [34]): Dose-Dependent Effect
- Activity (MDA-MB-231 [35]): inactive
